Data from patent publication US20250352555A1, “METHOD OF INCREASING IMMUNE CELL ACTIVATION AND/OR TREATING CANCER USING DIBENZOXAZEPINONES” (VASCULAR THERAPEUTICS PTY LTD, priority 2022, published 2025).
Several values for one entry are separate records, joined by “and”; a condition that tells them apart may be missing. Equal values may be shown once.

Experiments:
PD-1 = assay: Immunohistochemistry of B16F10 tumors (Day 17), PD-1; format: in vivo, mouse; conditions: B16F10 tumors Day 17, 200 mg/kg i.p., vs vehicle
Text: Immunohistochemical staining and analyses. Rabbit monoclonal anti-CD3 (cat. no. ab16669; mouse, rat and human reactive), rabbit monoclonal anti-PD-1 (cat. no. ab214421), rabbit monoclonal anti-CD68 (cat. no. ab125212) antibodies were obtained from Abcam, rabbit monoclonal anti-phospho-ERK (Thr^202/Tyr^204) (cat. no. CST4370), rabbit monoclonal total ERK (cat. no. CST4695), antibodies were obtained from Cell Signaling Technology. Rabbit polyclonal anti-PD-L1 (cat. no. PA5-20343) antibody was obtained from ThermoFisher.
Formalin fixed, paraffin embedded sections were prepared from tumors. Heat-induced epitope retrieval was applied to all deparaffinized sections (4 μm sections on Superfrost slides) with citrate buffer, pH 6.0 for 5 min at 110° C. Sections were blocked with Dual Endogenous Enzyme Block (DAKO, S2003) for 10 min and then with 2% skim milk for 20 min. Slides were incubated with primary antibody for 60 min at room temperature or overnight at 4° C. and then for 10 min with probe of MACH3 Rabbit AP-Polymer Detection solution (Biocare Medical, M3R533 G, H, L). […] Integrated optical density (IOD) or area of positive staining (red chromagen) was assessed using Image-Pro Plus software (Cybernetics, Bethesda, MD, USA). Positive staining was the average of quantitation in 4-8 fields of view under 20× or 40× objectives. […]

inflammation = conditions: arthritic mice (Yeh et al., 2021); cited from earlier work
JUN = assay: Western blotting for JUN, MeWo cells; format: cell-based, human; conditions: MeWo cells (BRAF WT), 24 h, dose-dependent
Description: Western blotting. Cells were treated with compounds and times indicated and total cell lysates were prepared in RIPA buffer. Lysates (10 μg) were resolved by SDS-PAGE and transferred to Immobilon-P polyvinylidene difluoride (PVDF) membranes (Millipore, USA).
Membranes were blocked with 5% skim milk and incubated with rabbit monoclonal anti-c-Jun (Abcam, cat. no. ab32137; mouse, rat and human reactive) antibody, rabbit monoclonal anti-PD-1 (Abcam, cat. no. ab214421) antibody, mouse monoclonal β-actin antibody (Sigma-Aldrich, cat. no. A5316), anti-phospho-SAPK/JNK (Thr^183/Tyr^185) (98F2) (CST, cat. no. 4671) antibody, anti-phospho-p44/42 MAPK (ERK1/2) (Thr^202/Tyr^204) (D13.14.4E) (CST, cat. no. 4370) antibody, anti-phospho-p38 MAPK (Thr^180/Tyr^182) (D3F9) (CST, cat. no. 4511) antibody, anti-SAPK/JNK antibody (CST, cat. no. 9252), anti-p44/42 MAPK (ERK1/2) (137F5) antibody (CST, cat. no. 4695), anti-p38 MAPK antibody (CST, cat. no. 9212), anti-DUSP8 antibody (Abcam, cat. no. ab198175) or anti-c-MAF (BLR045F) antibody (Abcam, cat. no. ab243901). […] Chemiluminescence was detected using the Western Lightning Chemiluminescence system (Thermo Scientific, USA) and ImageQuant™ LAS 4000 biomolecular imager (GE Healthcare Life Sciences, USA). Band intensity in images generated with the LAS 4000 was quantified using NIH Image J. […]

[1] = Serum BT2 concentration by LC-MS in B16F10 tumor-bearing mice; format: in vivo; conditions: mouse, intraperitoneal, Day 17, 200 mg/kg i.p., C57BL/6J mice
Description: Mass spectrometry. Proteins in serum (50 μl) were precipitated by diluting with acetone (150 μl). The mixture was left for 14 h at 4° C. and protein was pelleted by centrifugation (10 min at 14,000 g) and supernatant removed. The solution (10 μl) was diluted into 40 μl Buffer A (H2O (0.1% formic acid)) for MS analysis. BT2 standard was prepared by diluting stock suspension of BT2 ([…], 30 mg/ml) in Buffer A (990 μl) then diluting 10 μl of this in 990 μl followed by another 1 in 100 dilution. […] LC-MS was performed using a Thermo QExactive HF, Gold C18 column (50×2.1 mm) with Solvent A (H2O (0.1% formic acid) and Solvent B (H2O:CH3CN 20:80 (0.1% formic acid) with gradient T=0, 1% B, T=26 min, 100% B, T=27 min, 100%, T=27.1, 1% B, T=30 min, 1% B; column temperature 45° C. MS1 scan, m/z 140-800, 3×10^6 ions, max IT 25 msec, resolution 120,000 and Top 5 MS2 (2×10^5 ions, max IT 50 msec, resolution 30,000 and HCD 20, 30 50V). Extracted ion chromatograms (m/z 327.134±5 ppm) were obtained for blanks, standards and samples and integrated peak areas calculated and compared).
To assess the effect of BT2 in the same model, C57BL/6J mice bearing s.c. B16F10 tumors were administered with BT2 or vehicle (200 mg/kg or 20 ml/kg, respectively, i.p.) once a day on a 5 days-on/2 days-off schedule. Treatment commenced on Day 5 (FIG. 9A). […]

concentration at 17 day [1]: 4000 ng/mL and 12.3 µM
Structure (SMILES): CCOC(=O)Nc1ccc2c(c1)C(=O)N(CC)c1ccccc1O2 [BT2, (10-ethyl-11-oxo-10,11-dihydro-dibenzo[b,f][1,4]oxazepin-2-yl)-carbamic acid ethyl ester]
PD-1 levels in tumors (IHC) (PD-1): reduced
anti-inflammatory properties (inflammation): possesses anti-inflammatory properties
JUN expression (Western blot) (JUN): increased
